This passage reports Max % inhibition and IC50 results from patent US20230089867A1, “CYCLIC PENTAMER COMPOUNDS AS PROPROTEIN CONVERTASE SUBTILISIN/KEXIN TYPE 9 (PCSK9) INHIBITORS FOR THE TREATMENT OF METABOLIC DISORDER” (Novartis AG, priority 2018, published 2023).

In this assay the target is human PCSK9 (Homo sapiens, UniProt Q8NBP7). Briefly: PCSK9 ligand binding TR-FRET assay (interference with binding of human PCSK9 to human LDLR). Particulars: for Max % inhibition: PCSK9 FRET assay, efficacy (Amax), 100% = 1 uM unlabeled human PCSK9, 0% = DMSO; for IC50: TR-FRET, human PCSK9 Alexa Fluor 647 / human LDLR extracellular domain-Europium Kryptate, read-out: PCSK9 FRET Assay IC50. The method in brief: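 Threefold compound dilutions were pre-incubated 30 min with PCSK9, after which 4 nM Europium Kryptate-tagged human LDLR ectodomain was added for a further 2 h.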
(In TR-FRET formats the signal depends on donor and acceptor labels being close together.)

Chain of human PCSK9 (Q8NBP7 153-692): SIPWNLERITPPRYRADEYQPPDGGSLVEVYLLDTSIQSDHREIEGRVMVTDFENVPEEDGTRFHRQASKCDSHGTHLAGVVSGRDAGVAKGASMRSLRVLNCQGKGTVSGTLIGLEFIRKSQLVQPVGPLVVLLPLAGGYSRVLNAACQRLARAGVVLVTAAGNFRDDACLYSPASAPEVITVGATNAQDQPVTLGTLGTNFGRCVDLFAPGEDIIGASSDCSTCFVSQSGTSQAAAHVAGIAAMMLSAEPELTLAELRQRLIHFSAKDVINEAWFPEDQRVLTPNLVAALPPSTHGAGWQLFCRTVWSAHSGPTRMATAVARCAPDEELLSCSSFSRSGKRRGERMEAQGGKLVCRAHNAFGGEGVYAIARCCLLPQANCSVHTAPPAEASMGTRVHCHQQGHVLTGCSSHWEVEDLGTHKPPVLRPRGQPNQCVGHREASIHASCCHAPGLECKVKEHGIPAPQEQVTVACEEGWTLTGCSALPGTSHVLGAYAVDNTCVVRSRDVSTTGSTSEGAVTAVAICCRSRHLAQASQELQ
Chain of human PCSK9 (Q8NBP7 31-152 partner limits assumed): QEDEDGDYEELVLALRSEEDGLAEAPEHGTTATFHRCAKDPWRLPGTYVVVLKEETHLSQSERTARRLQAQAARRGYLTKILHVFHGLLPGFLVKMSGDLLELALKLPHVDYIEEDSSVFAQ

With `COC[C@@H]1NC(=O)[C@H](CCC(=O)N2CCOCC2)N(Cc2ccc(Cl)cc2Oc2ccc(-c3cnc(CN(C)C)n3C)cc2)C(=O)C[C@@H](Cc2ccccc2)C(=O)N(C)[C@@H](C)CNC(=O)C[C@H](Cc2ccc(Cl)cc2)N(C)C1=O` [Compound 175, (2S,5S,8S,13S,16R)-16-benzyl-1-(4-chloro-2-(4-(2-((dimethylamino)methyl)-1-methyl-1H-imidazol-5-yl)phenoxy)benzyl)-8-(4-chlorobenzyl)-5-(methoxymethyl)-7,13,14-trimethyl-2-(3-morpholino-3-oxopropyl)-1,4,7,11,14-pentaazacyclooctadecane-3,6,10,15,18-pentaone], the Max % inhibition was 102.55% and the IC50 – broadly, the concentration needed to halve the response being measured – is 5.8 nM.
In the case of `Cc1c(CN(C)C)ncn1-c1ccc(Oc2cc(Cl)ccc2CN2C(=O)C[C@@H](Cc3ccccc3)C(=O)N(C)[C@H]3CCCC[C@@H]3NC(=O)C[C@H](Cc3ccc(Cl)cc3)N(C)C(=O)[C@H](CO)NC(=O)[C@@H]2C)cc1` [Compound 278, (4S,7S,10S,14R,16aS,20aS)-14-benzyl-11-(4-chloro-2-(4-(4-((dimethylamino)methyl)-5-methyl-1H-imidazol-1-yl)phenoxy)benzyl)-4-(4-chlorobenzyl)-7-(hydroxymethyl)-5,10,16-trimethylhexadecahydrobenzo[l][1,4,7,11,14]pentaazacyclooctadecine-2,6,9,12,15(3H)-pentaone], the Max % inhibition was determined as 107.17% and the half-maximal inhibitory concentration (IC50) was determined as 1.3 nM.
With `COC[C@@H]1NC(=O)[C@H](CCCN)N(Cc2ccc(Cl)cc2Oc2ccc(-c3cnc(CN(C)C)n3C)cc2)C(=O)C[C@@H](Cc2ccccc2)C(=O)N(C)[C@H]2CCCC[C@@H]2NC(=O)C[C@H](Cc2ccc(Cl)cc2)N(C)C1=O` [Compound 304, (4S,7S,10S,14R,16aS,20aS)-10-(3-aminopropyl)-14-benzyl-11-(4-chloro-2-(4-(2-((dimethylamino)methyl)-1-methyl-1H-imidazol-5-yl)phenoxy)benzyl)-4-(4-chlorobenzyl)-7-(methoxymethyl)-5,16-dimethylhexadecahydrobenzo[l][1,4,7,11,14]pentaazacyclooctadecine-2,6,9,12,15(3H)-pentaone], the Max % inhibition worked out at 88.80% and the 50% inhibitory concentration (IC50) turned out to be 0.6 nM.
The matching figures for `COC[C@@H]1NC(=O)[C@H](C)N(Cc2ccc(Cl)cc2Oc2ccc(-c3cnc(CN4CCCC4)n3C)cc2)C(=O)C[C@@H](Cc2ccccc2)C(=O)N(C)[C@@H](CCN(C)C)CNC(=O)C[C@H](Cc2ccc(Cl)cc2)N(C)C1=O` [Compound 190, (2S,5S,8S,13S,16R)-16-benzyl-1-(4-chloro-2-(4-(1-methyl-2-(pyrrolidin-1-ylmethyl)-1H-imidazol-5-yl)phenoxy)benzyl)-8-(4-chlorobenzyl)-13-(2-(dimethylamino)ethyl)-5-(methoxymethyl)-2,7,14-trimethyl-1,4,7,11,14-pentaazacyclooctadecane-3,6,10,15,18-pentaone]: 100.60% and 32.6 nM.
For the compound `COC[C@@H]1NC(=O)[C@H](C)N(Cc2ccc(Cl)cc2Oc2ccc(-c3cnc(CN(C)C)n3C)cc2)C(=O)C[C@@H](Cc2cccc[n+]2[O-])C(=O)N(C)[C@H]2CCCC[C@@H]2NC(=O)C[C@H](Cc2ccc(Cl)cc2)N(C)C1=O` [Compound 172, 2-(((4S,7S,10S,14R,16aS,20aS)-11-(4-chloro-2-(4-(2-((dimethylamino)methyl)-1-methyl-1H-imidazol-5-yl)phenoxy)benzyl)-4-(4-chlorobenzyl)-7-(methoxymethyl)-5,10,16-trimethyl-2,6,9,12,15-pentaoxodocosahydrobenzo[l][1,4,7,11,14]pentaazacyclooctadecin-14-yl)methyl)pyridine 1-oxide], the Max % inhibition amounted to 102.44% and the IC50 turned out to be 1.4 nM.
The corresponding values for `COC[C@@H]1NC(=O)[C@H](C)N(Cc2ccc(Cl)cc2Oc2ccc(-c3cnc(CN(C)C)n3C)cc2)C(=O)C[C@@H](Cc2ccccc2)C(=O)N(C)[C@@H](C)CNC(=O)C[C@H](Cc2ccc(Cl)cc2)N(C)C1=O` [Compound 126, (2S,5S,8S,13S,16R)-16-benzyl-1-(4-chloro-2-(4-(2-((dimethylamino)methyl)-1-methyl-1H-imidazol-5-yl)phenoxy)benzyl)-8-(4-chlorobenzyl)-5-(methoxymethyl)-2,7,13,14-tetramethyl-1,4,7,11,14-pentaazacyclooctadecane-3,6,10,15,18-pentaone] are 101.12% and 1.5 nM.
As to `COC[C@@H]1NC(=O)[C@H](C)N(Cc2ccc(Cl)cc2Oc2ccc(-c3cnc(CN4CC5(COC5)C4)n3C)cc2)C(=O)C[C@@H](Cc2ccccc2)C(=O)N(C)[C@H]2CCCC[C@@H]2NC(=O)C[C@H](Cc2ccc(Cl)cc2)N(C)C1=O` [Compound 157, (4S,7S,10S,14R,16aS,20aS)-11-(2-(4-(2-(2-oxa-6-azaspiro[3.3]heptan-6-ylmethyl)-1-methyl-1H-imidazol-5-yl)phenoxy)-4-chlorobenzyl)-14-benzyl-4-(4-chlorobenzyl)-7-(methoxymethyl)-5,10,16-trimethylhexadecahydrobenzo[l][1,4,7,11,14]pentaazacyclooctadecine-2,6,9,12,15(3H)-pentaone], the Max % inhibition is 89.28% and the concentration for half-maximal inhibition (IC50) came out at 1.8 nM.
The matching figures for `COC[C@@H]1NC(=O)[C@H](CCCN2CCCC2)N(Cc2ccc(Cl)cc2Oc2ccc(-c3cnc(CN(C)C)n3C)cc2)C(=O)C[C@@H](Cc2cccc[n+]2[O-])C(=O)N(C)[C@H]2CCCC[C@@H]2NC(=O)C[C@H](Cc2ccc(Cl)cc2)N(C)C1=O` [Compound 111, 2-(((4S,7S,10S,14R,16aS,20aS)-11-(4-chloro-2-(4-(2-((dimethylamino)methyl)-1-methyl-1H-imidazol-5-yl)phenoxy)benzyl)-4-(4-chlorobenzyl)-7-(methoxymethyl)-5,16-dimethyl-2,6,9,12,15-pentaoxo-10-(3-(pyrrolidin-1-yl)propyl)docosahydrobenzo[l][1,4,7,11,14]pentaazacyclooctadecin-14-yl)methyl)pyridine 1-oxide]: 103.17% and 0.9 nM.
The corresponding values for `COC[C@@H]1NC(=O)[C@H](C)N(Cc2ccc(Cl)cc2Oc2ccc(-c3cnc(CN4CCC4)n3C)cc2)C(=O)C[C@@H](Cc2ccccc2)C(=O)N(C)[C@H]2CCCC[C@@H]2NC(=O)C[C@H](Cc2ccc(Cl)cc2)N(C)C1=O` [Compound 16, (4S,7S,10S,14R,16aS,20aS)-11-(2-(4-(2-(azetidin-1-ylmethyl)-1-methyl-1H-imidazol-5-yl)phenoxy)-4-chlorobenzyl)-14-benzyl-4-(4-chlorobenzyl)-7-(methoxymethyl)-5,10,16-trimethylhexadecahydrobenzo[l][1,4,7,11,14]pentaazacyclooctadecine-2,6,9,12,15(3H)-pentaone] are 92.71% and 1.7 nM.
Consider `COC[C@@H]1NC(=O)[C@H](C)N(Cc2ccc(Cl)cc2Oc2ccc(-c3cnc(CN4CCCC4)n3C)cc2)C(=O)C[C@@H](Cc2ccccc2)C(=O)N(C)[C@@H](CCCCN)CNC(=O)C[C@H](Cc2ccc(Cl)cc2)N(C)C1=O.O=C(O)C(F)(F)F` [Compound 169, (2S,5S,8S,13S,16R)-13-(4-aminobutyl)-16-benzyl-1-(4-chloro-2-(4-(1-methyl-2-(pyrrolidin-1-ylmethyl)-1H-imidazol-5-yl)phenoxy)benzyl)-8-(4-chlorobenzyl)-5-(methoxymethyl)-2,7,14-trimethyl-1,4,7,11,14-pentaazacyclooctadecane-3,6,10,15,18-pentaone trifluoroacetate], for which the Max % inhibition was 91.73% and the IC50 was found to be 1.3 nM.
The corresponding values for `COC[C@@H]1NC(=O)[C@H](C)N(Cc2ccc(Cl)cc2Oc2ccc(-n3nnc(CN(C)C)c3C)cc2)C(=O)C[C@@H](Cc2ccccc2)C(=O)N(C)[C@@H](C)CNC(=O)C[C@H](Cc2ccc(Cl)cc2)N(C)C1=O.O=CO` [Compound 134, (2S,5S,8S,13S,16R)-16-benzyl-1-(4-chloro-2-(4-(4-((dimethylamino)methyl)-5-methyl-1H-1,2,3-triazol-1-yl)phenoxy)benzyl)-8-(4-chlorobenzyl)-5-(methoxymethyl)-2,7,13,14-tetramethyl-1,4,7,11,14-pentaazacyclooctadecane-3,6,10,15,18-pentaone formate] are 98.77% and 39.5 nM.
In the case of `COC[C@@H]1NC(=O)[C@H](CCCN2CCOCC2)N(Cc2ccc(Cl)cc2Oc2ccc(-c3cnc(CN(C)C)n3C)cc2)C(=O)C[C@@H](Cc2ccccc2)C(=O)N(C)[C@@H](C)[C@H](C)NC(=O)C[C@H](Cc2ccc(Cl)cc2)N(C)C1=O` [Compound 283, (2S,5S,8S,12S,13S,16R)-16-benzyl-1-(4-chloro-2-(4-(2-((dimethylamino)methyl)-1-methyl-1H-imidazol-5-yl)phenoxy)benzyl)-8-(4-chlorobenzyl)-5-(methoxymethyl)-7,12,13,14-tetramethyl-2-(3-morpholinopropyl)-1,4,7,11,14-pentaazacyclooctadecane-3,6,10,15,18-pentaone], the Max % inhibition worked out at 105.87% and the IC50 turned out to be 1.6 nM.
For `C[C@H]1CNC(=O)C[C@H](Cc2ccc(Cl)cc2)N(C)C(=O)[C@H](C2COC2)NC(=O)[C@H](C)N(Cc2ccc(Cl)cc2Oc2ccc(-c3cnc(CN(C)C)n3C)cc2)C(=O)C[C@@H](Cc2ccccc2)C(=O)N1C` [Compound 31, (2S,5S,8S,13S,16R)-16-benzyl-1-(4-chloro-2-(4-(2-((dimethylamino)methyl)-1-methyl-1H-imidazol-5-yl)phenoxy)benzyl)-8-(4-chlorobenzyl)-2,7,13,14-tetramethyl-5-(oxetan-3-yl)-1,4,7,11,14-pentaazacyclooctadecane-3,6,10,15,18-pentaone], the Max % inhibition is 60.09% and the IC50 amounted to 787 nM.
